The text below walks through data of ChEMBL document CHEMBL1143035, “Synthesis, antifungal and haemolytic activity of a series of bis(pyridinium)alkanes” (Bioorg Med Chem, 2007).

≈ marks a conversion by molar mass, not a printed value. Counter-ions that a name gives are not always drawn.

Data set [1] concerns Cryptococcus neoformans. In words: Antifungal activity against Cryptococcus neoformans ATCC 90112. The class given is functional.
For data set [2], the system named is Candida albicans. The data set is described as follows: Antifungal activity against Candida albicans ATCC 10231. The class given is functional.
The nature of data set [3]: Cytotoxicity against human erythrocytes assessed as hemolytic activity at 500 uM. It is filed as cell-based. To be noted: erythrocyte.
In data set [4] the target is T1, Phospholipase B (Cryptococcus neoformans) (UniProt Q9P8P2).
T1 sequence (whole entry): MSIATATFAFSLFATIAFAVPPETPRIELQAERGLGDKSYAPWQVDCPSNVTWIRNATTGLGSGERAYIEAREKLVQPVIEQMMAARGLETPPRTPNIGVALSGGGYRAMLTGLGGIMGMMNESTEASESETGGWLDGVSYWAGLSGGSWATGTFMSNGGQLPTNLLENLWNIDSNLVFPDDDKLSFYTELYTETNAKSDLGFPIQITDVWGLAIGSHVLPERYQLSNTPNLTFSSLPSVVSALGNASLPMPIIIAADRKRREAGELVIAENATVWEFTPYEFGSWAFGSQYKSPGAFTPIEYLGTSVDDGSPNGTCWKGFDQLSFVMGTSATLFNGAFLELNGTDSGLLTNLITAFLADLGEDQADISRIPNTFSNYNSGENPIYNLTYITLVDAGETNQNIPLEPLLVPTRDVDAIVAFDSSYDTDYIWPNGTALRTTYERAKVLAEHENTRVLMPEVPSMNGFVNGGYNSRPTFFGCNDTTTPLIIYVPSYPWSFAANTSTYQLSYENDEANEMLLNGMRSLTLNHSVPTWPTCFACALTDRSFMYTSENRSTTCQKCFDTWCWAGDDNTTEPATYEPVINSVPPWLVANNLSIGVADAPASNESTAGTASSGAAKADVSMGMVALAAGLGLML
The data set is described as follows: Inhibition of phospholipase B activity of PLB1 in Cryptococcus neoformans var. grubii H99 assessed as loss of 1,2-di[1-14C]palmitoyl phosphatidylcholine at 250 uM.

Data set [5] deals with Aspergillus terreus. The data set is described as follows: Antifungal activity against Aspergillus terreus 03-232-378. The class given is functional.
In data set [6] the test system is Aspergillus flavus. The data set is described as follows: Antifungal activity against Aspergillus flavus ATCC 204 304. It is filed as functional.
Data set [7] has as its system Scedosporium boydii. In words: Antifungal activity against Scedosporium apiospermum 1-003-056. It is filed as functional.
Data set [8] concerns Lomentospora prolificans. The data set is described as follows: Antifungal activity against Scedosporium prolificans 1-003-040. It is filed as functional.
The subject of data set [9] is Fusarium solani. In words: Antifungal activity against Fusarium solani 04-132-4207. The class given is functional.
The target in data set [10] is T1, Phospholipase B (Cryptococcus neoformans). In words: Inhibition of lysophospholipase activity of PLB1 in Cryptococcus neoformans var. grubii H99 assessed as loss of 1-[14C]palmitoyl lyso phosphatidylcholine at 250 uM.
Data set [11] has the same target. In words: Inhibition of lysophospholipase transacylase activity of PLB1 in Cryptococcus neoformans var. grubii H99 assessed as rate of formation of 1-[14C]palmitoyl lyso phosphatidylcholine at 250 uM.
Data set [12] shares this target. The data set is described as follows: Inhibition of phospholipase B activity of PLB1 in Cryptococcus neoformans var. grubii H99 assessed as loss of 1,2-di[1-14C]palmitoyl phosphatidylcholine at 25 uM.
Data set [13] shares this target. In words: Inhibition of lysophospholipase activity of PLB1 in Cryptococcus neoformans var. grubii H99 assessed as loss of 1-[14C]palmitoyl lyso phosphatidylcholine at 25 uM.
Data set [14] has the same target. The data set is described as follows: Inhibition of lysophospholipase transacylase activity of PLB1 in Cryptococcus neoformans var. grubii H99 assessed as rate of formation of 1-[14C]palmitoyl lyso phosphatidylcholine at 25 uM.
For data set [15] the target is unchanged. The data set is described as follows: Inhibition of phospholipase B activity of PLB1 in Cryptococcus neoformans var. grubii H99 assessed as loss of 1,2-di[1-14C]palmitoyl phosphatidylcholine at 2.5 uM.
Data set [16] shares this target. In words: Inhibition of lysophospholipase activity of PLB1 in Cryptococcus neoformans var. grubii H99 assessed as loss of 1-[14C]palmitoyl lyso phosphatidylcholine at 2.5 uM.
Data set [17] shares this target. The data set is described as follows: Inhibition of lysophospholipase transacylase activity of PLB1 in Cryptococcus neoformans var. grubii H99 assessed as rate of formation of 1-[14C]palmitoyl lyso phosphatidylcholine at 2.5 uM.
For data set [18] the target is unchanged. The data set is described as follows: Inhibition of phospholipase B activity of PLB1 in Cryptococcus neoformans var. grubii H99 assessed as loss of 1,2-di[1-14C]palmitoyl phosphatidylcholine at 0.25 uM.
Data set [19] shares this target. In words: Inhibition of lysophospholipase activity of PLB1 in Cryptococcus neoformans var. grubii H99 assessed as loss of 1-[14C]palmitoyl lyso phosphatidylcholine at 0.25 uM.
Data set [20] has the same target. In words: Inhibition of lysophospholipase transacylase activity of PLB1 in Cryptococcus neoformans var. grubii H99 assessed as rate of formation of 1-[14C]palmitoyl lyso phosphatidylcholine at 0.25 uM.
Data set [21] is described as follows: Cytotoxicity against human erythrocytes assessed as hemolytic activity at 50 uM. It is filed as cell-based, Erythrocyte. To be noted: read-out: Activity.
Data set [22] can be described thus: Cytotoxicity against human erythrocytes assessed as hemolytic activity at 5 uM. The class given is cell-based, Erythrocyte. Conditions: read-out: Activity.
For data set [23], the system named is Aspergillus fumigatus. In words: Antifungal activity against Aspergillus fumigatus ATCC 204 305. The class given is functional.

Take `[Br-].[Br-].c1cc[n+](CCCCCC[n+]2ccccc2)cc1`: the MIC – broadly, the smallest concentration in the dilution series that meets the test's criterion for growth inhibition – in data set [1] is over 350 µM; in data set [2] it was 175 µM. The Activity result in [3] was “Not Active”.

Take `[Cl-].[Cl-].c1ccc2c(c1)ccc[n+]2CCCCCCCCCCCC[n+]1cccc2ccccc21`: the minimum inhibitory concentration (MIC) amounted to 11 µM in data set [1] and 22 µM in [2]. Also, the Activity entry in data set [3] is “Not Active”.

`[Br-].[Br-].c1cc[n+](CCCCCCCCCC[n+]2ccccc2)cc1`: the minimal inhibitory concentration (MIC) in data set [1] stood at 350 µM; in data set [2] it was 88 µM. Also, the Activity result in [3] is “Not Active”.

Regarding `CN(C)c1cc[n+](CCCCCCCCCCCC[n+]2ccc(N(C)C)cc2)cc1.[Br-].[Br-]`, the inhibition (as a rule, the change of the read-out against control, counted positive when it falls) in data set [4] came to 40%. The MIC in data set [1] and in [2] was 2.8 µM in each case. Besides, the Activity result in data set [3] is listed as “Not Active”.

`Nc1cc[n+](CCCCCCCCCCCCCCCC[n+]2ccc(N)cc2)cc1.[Br-].[Br-]`: the inhibition in data set [4] was determined as 40%. Also, the MIC in [1] and in data set [2] was 1.4 µM in each case. Further, the Activity entry in data set [3] is given as “Not Active”.

Consider `[Br-].[Br-].c1cc[n+](CCCCCCCC[n+]2ccccc2)cc1`, for which the MIC was over 350 µM in data set [1] and 175 µM in data set [2]. Also, the Activity entry in data set [3] is given as “Not Active”.

With `Cc1cc(N)c2ccccc2[n+]1CCCCCCCCCCCC[n+]1c(C)cc(N)c2ccccc21.[Cl-].[Cl-]`, the MIC in data set [1] was 88 µM; in data set [2], 22 µM. Moreover, the Activity entry in data set [3] is given as “Not Active”.

Take `C[C@@H]1[C@H](O)[C@@H](C)/C=C/C=C/C=C/C=C/C=C/C=C/C=C/[C@H](O[C@@H]2O[C@H](C)[C@@H](O)[C@H](N)[C@@H]2O)C[C@@H]2O[C@](O)(C[C@@H](O)C[C@@H](O)[C@H](O)CC[C@@H](O)C[C@@H](O)CC(=O)O[C@H]1C)C[C@H](O)[C@H]2C(=O)O` [AMPHOTERICIN B]: the minimal inhibitory concentration (MIC) in data set [1] turned out to be 0.55 µM (≈ 0.508 µg/mL); in data set [2] it was 0.55 µM (≈ 0.508 µg/mL); in data set [5], 1.1 µM (≈ 1.02 µg/mL); in data set [6] it was 0.55 µM (≈ 0.508 µg/mL); in data set [7], 0.55 µM (≈ 0.508 µg/mL); in data set [8], 4.4 µM (≈ 4.07 µg/mL). Also, the MIC in data set [9] came out at 0.28 µM (≈ 0.259 µg/mL).

Regarding `CCCCCCCCN=c1ccn(CCCCCCCCCCn2ccc(=NCCCCCCCC)cc2)cc1` [OCTENIDINE HYDROCHLORIDE], the inhibition in [4] came out at 100%; in [10], 97%; in data set [11] it was 97%; in data set [12], 80%; in [13], 46%; in data set [14], 43%. In addition, the inhibition in data set [15] worked out at 50%; in data set [16], 16%; in [17], 12%; in [18], 0%; in [19], 0%; in data set [20] it was 0%. Also, the MIC in data set [1] stood at 0.7 µM; in data set [2], 1.4 µM. Moreover, the hemolysis at 50 µM in [21] was 43%. In [22], the hemolysis at 5 µM is 9%.

Regarding `[Br-].[Br-].c1ccc2c(c1)ccc[n+]2CCCCCCCCCC[n+]1cccc2ccccc21`, the minimal inhibitory concentration (MIC) in data set [1] and in data set [2] was 88 µM each time. For the same compound, in [3], the Activity entry is reported as “Not Active”.

On to `Nc1cccc[n+]1CCCCCCCCCCCC[n+]1ccccc1N.[Br-].[Br-]`, for which the inhibition in [4] was determined as 40%. The minimal inhibitory concentration (MIC) in data set [1] and in [2] was 5.5 µM throughout. For the same compound, the Activity entry in data set [3] is reported as “Not Active”.

Take `Br.Br.N=c1ccn(CCCCCCCCCCn2ccc(=N)cc2)cc1`: the MIC in [1] stood at 22 µM; in data set [2], 2.8 µM. The Activity entry in data set [3] is given as “Not Active”.

`Cc1cc(N)c2ccccc2[n+]1CCCCCCCCCC[n+]1c(C)cc(N)c2ccccc21.[Cl-].[Cl-]` [DEQUALINIUM CHLORIDE]: the MIC stood at 11 µM in data set [1] and 5.5 µM in [2]. Further, in [3], the Activity result is reported as “Not Active”.

For `Br.Br.N=c1ccn(CCCCCCCCCCCCn2ccc(=N)cc2)cc1`, in [4], the inhibition is 40%. The figures for the MIC in [1] and in data set [2] were 5.5 µM and 1.4 µM, respectively. Besides, the Activity result in data set [3] is listed as “Not Active”.

With `[Br-].[Br-].c1cc[n+](CCCCCCCCCCCC[n+]2ccccc2)cc1`, the MIC turned out to be 88 µM in data set [1] and 44 µM in [2]. Besides, the Activity result in data set [3] is recorded as “Not Active”.

With `CNc1cc[n+](CCCCCCCCCCCC[n+]2ccc(NC)cc2)cc1.[Br-].[Br-]`, the MIC is 2.8 µM in data set [1]; 1.4 µM in data set [2]; 44 µM in data set [23]; 11 µM in [5]; 44 µM in data set [6]; 2.8 µM in data set [7]. Further, the results for the MIC in [8] and in data set [9] were 2.8 µM and 44 µM, respectively. Besides, in data set [3], the Activity entry is “Not Active”.

For `Cc1cc(N)c2ccccc2[n+]1CCCCCCCC[n+]1c(C)cc(N)c2ccccc21.[Br-].[Br-]`, the MIC in [1] and in [2] was 5.5 µM each time. Moreover, the Activity result in data set [3] is on record as “Not Active”.
